Common to all, as to assay type: in vivo, mouse (BALB/cJRj, female)
The test system of experiment [1] is ovariectomized BALB/c mice. The experiment can be described thus: 3-point bending of femur (whole-bone strength), ovariectomy-induced bone fragility model. Conditions: 28 days, n=8. The procedure: (§1) Eight animals were randomly assigned to each group.
All animals received intraperitoneal administration of calcein green (10 mg/kg) 10 days and 2 days before sacrifice. Animals were housed in social groups and maintained in a 12 h:12 h light/dark cycle. They had free access to water and food. At necropsy, blood was collected by intracardiac aspiration into EDTA-treated tubes. Blood samples were centrifuged at 13,000 g for 15 min, aliquoted and stored at -80°C until plasma levels of exendin-4 (#EK-070-94, Phoenix pharmaceuticals, Burlingame, CA) and calcitonin (NBP3-06734, Bio-Techne Ltd, Abingdon, UK) were measured according to the manufacturer’s protocol. Plasma levels of the bone remodeling markers C-terminal telopeptide of collagen type I (CTx-I – RatLaps, Immunodiagnostic Systems Ltd, Boldon, UK) and N-terminal propeptide of type I collagen (P1NP - Rat/mouse P1NP, Immunodiagnostic Systems Ltd) were measured according to the manufacturers’ recommendation. Right femurs were wrapped in saline-soaked gauze and frozen at -20°C until use. Right tibiae were fixed in ethanol-based fixative and stored at 4°C until use. No specific inclusion or exclusion criteria were applied for animal selection. […] Additionally, correct implantation of the cerebral perfusion cannulas for icv-administered animals was verified at necropsy. All animals meeting these criteria were included in the study.
The whole-bone strength of right femurs was assessed by 3-point bending in accordance with published guidelines ([34]). Three-point bending strength was measured with a constant span length of 10 mm. Bones were tested in the antero-posterior axis with the posterior surface facing upward, centered on the support and the pressing force was applied vertically to the midshaft of the bone. Each bone was tested fully hydrated and at room temperature with a loading speed of 2 mm.min^-1 until failure with a 500 N load cell on an Instron 5942 device (Instron, Elancourt, France) and the load-displacement curve was recorded at a 100 Hz rate by the Bluehill 3 software (Instron). Ultimate load, ultimate displacement, stiffness and work to fracture were calculated as indicated in ([34]). The yield point was determined as the point at which a regression line that represents a 10% loss in stiffness crosses the load-displacement curve. Post-yield displacement was computed as the displacement between yielding and fracture. Peak bending moment was calculated as one-half the ultimate load multiplied by one-half the span length ([34]). The peak bending moment is related to bone tissue material properties and bone midshaft geometry by the following equation: M=σb×IML/cAP

Experiment [2] relates to ovariectomized BALB/c mice. The experiment can be described thus: microCT cortical bone microstructure, midshaft femur. Conditions: 28 days, OVX, n=8. The procedure: as §1
All animals received intraperitoneal administration of calcein green (10 mg/kg) 10 days and 2 days before sacrifice. Animals were housed in social groups and maintained in a 12 h:12 h light/dark cycle. They had free access to water and food. At necropsy, blood was collected by intracardiac aspiration into EDTA-treated tubes. Blood samples were centrifuged at 13,000 g for 15 min, aliquoted and stored at -80°C until plasma levels of exendin-4 (#EK-070-94, Phoenix pharmaceuticals, Burlingame, CA) and calcitonin (NBP3-06734, Bio-Techne Ltd, Abingdon, UK) were measured according to the manufacturer’s protocol. Plasma levels of the bone remodeling markers C-terminal telopeptide of collagen type I (CTx-I – RatLaps, Immunodiagnostic Systems Ltd, Boldon, UK) and N-terminal propeptide of type I collagen (P1NP - Rat/mouse P1NP, Immunodiagnostic Systems Ltd) were measured according to the manufacturers’ recommendation. Right femurs were wrapped in saline-soaked gauze and frozen at -20°C until use. […]
MicroCT analyses were performed at the proximal metaphysis of the right tibia and at the mid-diaphysis of the right femur with a Bruker 1272 microtomograph operated at 70 kV, 140 μA, 1000 ms integration time and imaging in ethanol 70. […] The region analyzed (0.5 mm) was centered at the midpoint between the third trochanter and the distal growth plate. […]

The subject of experiment [3] is ovariectomized BALB/c mice. Briefly: Bone ECM material evaluation by infrared microspectroscopy, midshaft femur. Conditions: 28 days, n=8. The procedure: as §1
Distal halves of the right femur were embedded undecalcified in pMMA after dehydration and infiltration. One micrometer-thick cross-section of the midshaft femur was cut with an ultramicrotome (Leica EM UC7, Leica microsystems, Nanterre, France) and deposited on BaF2 windows. Spectral analysis was performed, using a Bruker Hyperion 3000 infrared microscope coupled to a Bruker Vertex 70 spectrometer equipped with a single element mercury cadmium telluride (MCT) detector, between double calcein labels, as indicator of bone formation site. Mid-infrared spectra were recorded at a resolution of 4 cm^-1 (Spectral range 850–2000 cm^-1), with 32 accumulations in transmission mode. Background spectra were collected under identical conditions from the same BaF2 windows at the beginning and end of each experiment to ensure instrument stability. Post-processing was performed using Matlab R2023b (The Mathworks, Natick, CA) and included Mie scattering correction, pMMA subtraction, normalization and denoising (Savitzky-Golay algorithm, degree 2, span 9) prior to second derivative spectroscopy and curve fitting routines as previously reported in detail ([35]). A signal-to-noise ratio was computed in the region 1850-2000 cm^-1 to ensure proper denoising and quality of FTIR spectra for subsequent second derivative and curve fitting. Bone ECM material parameters were: Phosphate/Amide ratio (area ratio of v1,v3 phosphate and amide I); mineral crystallinity/maturity (XST, area ratio of subbands located at subbands ~1030 cm^-1 and ~1020 cm^-1), carbonate/phosphate ratio (area ratio of v2 carbonate and v1,v3 phosphate), and collagen maturity (intensity ratio of subbands located at 1660 cm^-1/1690 cm^-1) ([35]).

Where [4] appears, read: icv Ex-4 70 pmol/day, vs OVX+vehicle, p<0.001.

As for exendin-4 [Ex-4], the increase in energy-to-fracture is given as 8% in experiment [1] (setting [4]) and 24% in experiment [1] (s.c. Ex-4 ~700 pmol/day, vs OVX+vehicle, p=0.020). Also, the “increase in post-yield displacement” value was found to be 8% in experiment [1] (setting [4]) and 18% in experiment [1] (s.c. Ex-4 ~700 pmol/day, vs OVX+vehicle, p=0.025). Moreover, the “increase in ultimate load” value in experiment [1] (icv Ex-4 70 pmol/day, vs OVX+vehicle, p=0.010) worked out at 7%. Moreover, the ultimate load result in experiment [1] (s.c. Ex-4 ~700 pmol/day, OVX, p=0.817) was “did not prevent the impact of ovariectomy on ultimate load”. Further, the stiffness entry in experiment [1] (s.c. Ex-4 ~700 pmol/day, OVX, p=0.984) is “did not prevent the impact of ovariectomy”. Further, the cortical bone microstructure entry in experiment [2] (icv Ex-4 70 pmol/day) was “unable to demonstrate significant changes in cortical bone microstructure”; in experiment [2] (s.c. Ex-4 ~700 pmol/day) it was “did not alter cortical bone microstructure”. Besides, the “increase in collagen maturity (1660/1690 cm^-1 subband ratio)” value in experiment [3] (icv Ex-4 70 pmol/day, OVX, p<0.001) came out at 22%; in experiment [3] (s.c. Ex-4 ~700 pmol/day, vs OVX+vehicle, p=0.005) it was 18%. The “bone mineral (material level)” value in experiment [3] (s.c. Ex-4 ~700 pmol/day, OVX) is on record as “not affected”.

For the origin of these results see paper PMC7618104, “The GLP-1 analogue, exendin-4, improves bone material properties and strength through a central relay in ovariectomized mice” (American journal of physiology. Endocrinology and metabolism, 2025).
